# Results from patent US20260365627A1, “NOVEL ECTONUCLEOTIDE PYROPHOSPHATASE / PHOSPHODIESTERASE 1 (ENPP-1) INHIBITORS AND USES THEREOF” (SRAVATHI AI TECHNOLOGY PRIVATE LIMITED, priority 2022, published 2026).
# Target: T1, Human ENPP-1 (Homo sapiens, UniProt P22413)
# T1 sequence (P22413 1-925): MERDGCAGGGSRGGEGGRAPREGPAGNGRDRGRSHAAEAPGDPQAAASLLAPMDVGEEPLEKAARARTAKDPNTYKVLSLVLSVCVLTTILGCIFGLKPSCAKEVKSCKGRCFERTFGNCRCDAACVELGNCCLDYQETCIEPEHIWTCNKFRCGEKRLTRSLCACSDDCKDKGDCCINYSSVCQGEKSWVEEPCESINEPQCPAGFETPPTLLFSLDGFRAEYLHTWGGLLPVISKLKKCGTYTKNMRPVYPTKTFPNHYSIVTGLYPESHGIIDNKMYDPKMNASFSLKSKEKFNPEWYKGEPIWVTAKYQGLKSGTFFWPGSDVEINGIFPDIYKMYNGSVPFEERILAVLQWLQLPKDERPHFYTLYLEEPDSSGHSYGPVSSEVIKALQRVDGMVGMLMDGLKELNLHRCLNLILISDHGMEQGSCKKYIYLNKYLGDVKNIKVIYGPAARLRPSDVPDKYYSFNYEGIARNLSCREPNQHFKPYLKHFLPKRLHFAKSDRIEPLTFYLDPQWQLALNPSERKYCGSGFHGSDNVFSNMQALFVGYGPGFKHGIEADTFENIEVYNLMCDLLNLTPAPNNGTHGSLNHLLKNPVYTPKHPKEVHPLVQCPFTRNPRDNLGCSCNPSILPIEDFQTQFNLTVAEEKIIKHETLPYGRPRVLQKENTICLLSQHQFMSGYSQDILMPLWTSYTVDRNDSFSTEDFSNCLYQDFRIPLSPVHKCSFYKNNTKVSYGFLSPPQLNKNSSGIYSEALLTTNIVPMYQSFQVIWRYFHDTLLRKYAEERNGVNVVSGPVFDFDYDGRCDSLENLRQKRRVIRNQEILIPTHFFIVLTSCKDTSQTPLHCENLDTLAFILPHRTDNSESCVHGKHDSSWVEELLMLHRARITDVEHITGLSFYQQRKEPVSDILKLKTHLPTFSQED
# Assay: ENPP-1 Inhibition Assay (cGAMP substrate, AMP Glo luminescence)
# Format: biochemical
# Settings: Human ENPP-1 3 nM, 5 μM cGAMP, pH 7.4, 40 μM HSA, RT 3 hrs; read-out: IC50 values of compounds of the invention, 0.1-1 uM
# Description: Assay method: Human ENPP-1 at 3 nM prepared in pH 7.4 was incubated with 5 μM cGAMP substrate with the test samples prepared in buffer with pH 7.4 along with 40 μM HSA. The reaction was incubated at RT for 3 hrs. Post incubation, the reaction was stopped by heating the contents at 95 °C for 10 mins. 10 μl of the solution was added to 384-well plate to which 10 μl of AMP Glo reagent-1 was added and incubated for 60 mins at 25 °C. After the incubation, 20 μl of AMP detection solution was added to each well with the enzyme reaction and incubated for 60 mins at 25 °C. The luminescence signal (RLU) was recorded using SpectraMax I3X plate reader.
# The luminescence signal is measured as a function of concentration of the inhibitor. If the inhibitor molecule is active, as the concentration of the inhibitor increases, the luminescence value (referred to as OD) decreases. % Inhibition is then calculated as
# % Inhibition=((OD of Control−OD of sample)/OD of Control)×100
# In this disclosure, the IC50 value of an inhibitor molecule is measured as the concentration of inhibitor which inhibits growth of 50% of the human ENPP-1. A graph of inhibitor concentration on X-axis vs. percentage inhibition on Y-axis is drawn and the […] is measured as the IC50 value.
row,Structure (SMILES),IC50
1,COc1cc2ncnc(N=S(C)(=O)c3cccc(N(C)C(N)=O)c3)c2cc1OC (stereo not drawn) [SAPTI012S012],100 to 1000 nM
2,COc1cc2ncnc(N=S(C)(=O)c3ccc(NC(N)=S)cc3)c2cc1OC (stereo not drawn) [SAPTI012S007],100 to 1000 nM
3,COc1cc2ncnc(N=S(C)(=O)c3ccc(C(=O)O)cc3)c2cc1OC (stereo not drawn) [SAPTI012S014],100 to 1000 nM
4,COc1cc2ncnc(N=S(C)(=O)c3cccc(NS(N)(=O)=O)c3)c2cc1OC (stereo not drawn) [SAPTI012S010],100 to 1000 nM

# The next lines start with the values.
row,IC50,Structure (SMILES)
1,100 to 1000 nM,COc1cc2ncnc(N=S(=O)(c3cccc(NC(N)=O)c3)C3CC3)c2cc1OC (stereo not drawn) [SAPTI012S032]
2,100 to 1000 nM,COc1cccc2c(N=S(C)(=O)c3ccc(B(O)O)cc3)ncnc12 (stereo not drawn) [SAPTI012S035]
3,100 to 1000 nM,COc1cc2ncnc(N=S(C)(=O)c3cccc(C(N)=O)c3)c2cc1OC (stereo not drawn) [SAPTI012S022]
4,100 to 1000 nM,COc1cc2ncnc(N=S(C)(=O)c3ccc(CCP(=O)(O)O)cc3)c2cc1OC (stereo not drawn) [SAPTI012S025]
5,100 to 1000 nM,COc1cc2ncnc(N=S(=O)(c3ccccc3)c3ccc(NC(N)=O)cc3)c2cc1OC (stereo not drawn) [SAPTI012S034]

# Same assay, conditions: Human ENPP-1 3 nM, 5 μM cGAMP, pH 7.4, 40 μM HSA, RT 3 hrs; read-out: IC50 values of compounds of the invention, 1-10 uM
row,Structure (SMILES),IC50
1,COc1cccc2c(N=S(C)(=O)c3cccc(N(C)C(N)=O)c3)ncnc12 (stereo not drawn) [SAPTI012S013],1000 to 10000 nM
2,COc1cc2nccc(N=S(C)(=O)c3ccc(C(N)=O)cc3)c2cc1OC (stereo not drawn) [SAPTI012S018],1000 to 10000 nM
3,COc1cc2ncnc(N=S(C)(=O)c3cccc(P(=O)(O)O)c3)c2cc1OC (stereo not drawn) [SAPTI012S002],1000 to 10000 nM
4,Cn1ccc2c(N=S(C)(=O)c3ccc(C(N)=O)cc3)ncnc21 (stereo not drawn) [SAPTI012S019],1000 to 10000 nM
5,COc1cccc2c(N=S(C)(=O)c3ccc(C(N)=O)cc3)ccnc12 (stereo not drawn) [SAPTI012S020],1000 to 10000 nM
6,COc1cc2ncnc(N=S(C)(=O)c3ccc(P(=O)(O)O)cc3)c2cc1OC (stereo not drawn) [SAPTI012S001],1000 to 10000 nM

# Results, then the compound that gave them:
row,IC50,Structure (SMILES)
1,1000 to 10000 nM,COc1cccc2ncnc(N=S(C)(=O)c3ccc(B(O)O)cc3)c12 (stereo not drawn) [SAPTI012S039]
2,1000 to 10000 nM,COc1cc2ncnc(N=S(C)(=O)c3ccc(F)c(B(O)O)c3)c2cc1OC (stereo not drawn) [SAPTI012S043]

# Same assay, conditions: Human ENPP-1 3 nM, 5 μM cGAMP, pH 7.4, 40 μM HSA, RT 3 hrs; read-out: IC50 values of compounds of the invention, <100 nM
row,Structure (SMILES),IC50
1,COc1cc2ncnc(N=S(C)(=O)c3ccc(C(N)=O)cc3)c2cc1OC (stereo not drawn) [SAPTI012S016],< 100 nM
2,COc1cc2ncnc(N=S(C)(=O)c3ccc(S(C)(=N)=O)cc3)c2cc1OC (stereo not drawn) [SAPTI012S008],< 100 nM
3,COc1cc2ncnc(N=S(C)(=O)c3cccc(B(O)O)c3)c2cc1OC (stereo not drawn) [SAPTI012S005],< 100 nM
4,COc1cc2ncnc(N=S(C)(=O)c3cccc(C(=O)O)c3)c2cc1OC (stereo not drawn) [SAPTI012S021],< 100 nM
5,COc1cc2ncnc(N=S(C)(=O)c3ccc(B(O)O)cc3)c2cc1OC (racemic) [SAPTI012S006],< 100 nM
6,COc1cc2ncnc(N=S(C)(=O)c3cccc(NC(N)=O)c3)c2cc1OC (stereo not drawn) [SAPTI012S011],< 100 nM
7,COc1cc2ncnc(N=S(C)(=O)c3ccc(CNC(N)=O)cc3)c2cc1OC (stereo not drawn) [SAPTI012S015],< 100 nM
8,COc1cc2ncnc(N=S(C)(=O)c3ccc(NC(=O)Nc4ccccc4)cc3)c2cc1OC (stereo not drawn) [SAPTI012S009],< 100 nM

# Second part, the compound after the results:
row,IC50,Structure (SMILES)
1,< 100 nM,COc1cc2ncnc(N=S(C)(=O)c3cccc4c(P(=O)(O)O)cccc34)c2cc1OC (stereo not drawn) [SAPTI012S028]
2,< 100 nM,COc1cc2ncnc(N=S(C)(=O)c3ccc(CC(N)=O)cc3)c2cc1OC (stereo not drawn) [SAPTI012S042]
3,< 100 nM,COc1nccc2c(N=S(C)(=O)c3ccc(B(O)O)cc3)ncnc12 (stereo not drawn) [SAPTI012S040]
4,< 100 nM,COc1cc2ncnc(N=S(=O)(c3cccc(NC(N)=O)c3)C3CCCC3)c2cc1OC (stereo not drawn) [SAPTI012S030]
5,< 100 nM,COc1cc2ncnc(N=S(C)(=O)c3cccc4c(NC(N)=O)cccc34)c2cc1OC (stereo not drawn) [SAPTI012S029]
6,< 100 nM,COc1cc2ncnc(N=S(=O)(c3ccc(P(=O)(O)O)cc3)C(C)C)c2cc1OC (stereo not drawn) [SAPTI012S031]
7,< 100 nM,COc1cc2ncnc(N=S(C)(=O)c3cccc(CNC(N)=O)c3)c2cc1OC (stereo not drawn) [SAPTI012S024]
8,< 100 nM,COc1cc2nccc(N=S(C)(=O)c3ccc(B(O)O)cc3)c2cc1OC (stereo not drawn) [SAPTI012S036]

# Same assay, conditions: Human ENPP-1 3 nM, 5 μM cGAMP, pH 7.4, 40 μM HSA, RT 3 hrs; read-out: IC50 values of compounds of the invention, >10 uM
row,Structure (SMILES),IC50
1,COc1cccc2c(N=S(C)(=O)c3ccc(C(N)=O)cc3)ncnc12 (stereo not drawn) [SAPTI012S017],> 10000 nM
2,"COc1cc2ncnc(N=S(C)(=O)c3ccc(NS(N)(=O)=O)cc3)c2cc1OC (stereo not drawn) [SAPTI012S003, N-{4-[N-(6,7-dimethoxyquinazoline-4-)-S-methanesulfonimidoyl]phenyl}sulfuric diamide]",> 10000 nM

# Further lines, results first:
row,IC50,Structure (SMILES)
1,> 10000 nM,CS(=O)(=Nc1ncnc2ccccc12)c1ccc(B(O)O)cc1 (stereo not drawn) [SAPTI012S041]
2,> 10000 nM,COc1cc2ncnc(N=S(=O)(c3cccc(NC(N)=O)c3)C(C)C)c2cc1OC (stereo not drawn) [SAPTI012S033]
3,> 10000 nM,CS(=O)(=Nc1ncnc2ccc(F)cc12)c1ccc(B(O)O)cc1 (stereo not drawn) [SAPTI012S038]
4,> 10000 nM,Cn1ccc2c(N=S(C)(=O)c3ccc(B(O)O)cc3)ncnc21 (stereo not drawn) [SAPTI012S037]
5,> 10000 nM,COc1cc2ncnc(N=S3(=O)CCC(C)(C)c4cc(P(=O)(O)O)ccc43)c2cc1OC (stereo not drawn) [SAPTI012S026]
6,> 10000 nM,COc1cc2ncnc(N=S(=O)(CCCP(=O)(O)O)c3ccccc3)c2cc1OC (stereo not drawn) [SAPTI012S027]
7,> 10000 nM,COc1cc2ncnc(N=S(C)(=O)c3cccc(CN)c3)c2cc1OC (stereo not drawn) [SAPTI012S023]

# Same assay, conditions: racemate and enantiomers separated by chiral HPLC; Human ENPP-1 3 nM, 5 μM cGAMP, pH 7.4, 40 μM HSA; read-out: IC50 value range (enantiomers of SAPTI012S006)
row,IC50,Structure (SMILES)
1,< 100 nM,COc1cc2ncnc(N=S(C)(=O)c3ccc(B(O)O)cc3)c2cc1OC (racemic) [SAPTI012S006]
2,< 100 nM,"COc1cc2ncnc(N=S(C)(=O)c3ccc(B(O)O)cc3)c2cc1OC (single isomer, unassigned) [SAPTI012S006-E2]"
3,> 100 nM,"COc1cc2ncnc(N=S(C)(=O)c3ccc(B(O)O)cc3)c2cc1OC (single isomer, unassigned) [SAPTI012S006-E1]"
